From patent publication US12084453B2, “Bicyclic amines as CDK12 inhibitors” (Incyte Corporation, priority 2021, dated 2024) come the findings set out here.

Where only a bound is given, the exact number is not on record here.

T1 sequence (Q9NYV4 whole entry): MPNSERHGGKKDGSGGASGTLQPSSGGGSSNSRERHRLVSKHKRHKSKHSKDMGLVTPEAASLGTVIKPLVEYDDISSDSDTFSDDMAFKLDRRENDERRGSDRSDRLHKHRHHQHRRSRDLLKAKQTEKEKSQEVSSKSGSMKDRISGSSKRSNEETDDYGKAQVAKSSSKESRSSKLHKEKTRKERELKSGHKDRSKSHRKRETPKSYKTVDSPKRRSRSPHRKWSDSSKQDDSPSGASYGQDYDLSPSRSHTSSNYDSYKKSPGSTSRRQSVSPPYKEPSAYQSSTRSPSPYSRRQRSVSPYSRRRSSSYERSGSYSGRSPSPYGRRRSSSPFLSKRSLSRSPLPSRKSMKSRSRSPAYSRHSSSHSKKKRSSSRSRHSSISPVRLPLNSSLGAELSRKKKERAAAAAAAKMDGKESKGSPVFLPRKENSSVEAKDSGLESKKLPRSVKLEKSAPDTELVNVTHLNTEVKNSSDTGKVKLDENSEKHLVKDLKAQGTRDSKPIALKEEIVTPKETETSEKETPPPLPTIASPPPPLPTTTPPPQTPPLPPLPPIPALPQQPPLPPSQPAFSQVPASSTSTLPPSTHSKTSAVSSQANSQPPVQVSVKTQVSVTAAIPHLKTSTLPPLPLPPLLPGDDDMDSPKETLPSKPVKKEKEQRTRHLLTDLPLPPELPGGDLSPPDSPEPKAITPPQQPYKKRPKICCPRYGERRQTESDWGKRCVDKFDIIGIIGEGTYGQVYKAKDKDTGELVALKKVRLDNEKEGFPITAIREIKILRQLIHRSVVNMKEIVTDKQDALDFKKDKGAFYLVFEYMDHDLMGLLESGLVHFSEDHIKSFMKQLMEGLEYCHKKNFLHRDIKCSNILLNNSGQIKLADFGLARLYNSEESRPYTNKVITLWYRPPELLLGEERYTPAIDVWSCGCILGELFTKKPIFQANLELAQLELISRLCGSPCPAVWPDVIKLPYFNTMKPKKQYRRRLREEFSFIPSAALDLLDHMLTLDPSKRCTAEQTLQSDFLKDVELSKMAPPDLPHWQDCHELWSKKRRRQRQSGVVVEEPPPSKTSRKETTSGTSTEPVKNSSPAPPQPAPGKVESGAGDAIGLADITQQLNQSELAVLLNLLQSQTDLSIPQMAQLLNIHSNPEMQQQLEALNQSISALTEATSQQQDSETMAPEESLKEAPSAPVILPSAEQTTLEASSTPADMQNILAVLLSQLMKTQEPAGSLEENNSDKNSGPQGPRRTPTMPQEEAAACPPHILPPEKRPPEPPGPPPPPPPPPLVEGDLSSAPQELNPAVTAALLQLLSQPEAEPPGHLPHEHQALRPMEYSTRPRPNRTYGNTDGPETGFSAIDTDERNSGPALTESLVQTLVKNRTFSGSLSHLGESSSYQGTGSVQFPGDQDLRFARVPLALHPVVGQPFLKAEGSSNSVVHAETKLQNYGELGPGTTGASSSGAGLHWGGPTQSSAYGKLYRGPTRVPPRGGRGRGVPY
T1 sequence (O75909 whole entry partner): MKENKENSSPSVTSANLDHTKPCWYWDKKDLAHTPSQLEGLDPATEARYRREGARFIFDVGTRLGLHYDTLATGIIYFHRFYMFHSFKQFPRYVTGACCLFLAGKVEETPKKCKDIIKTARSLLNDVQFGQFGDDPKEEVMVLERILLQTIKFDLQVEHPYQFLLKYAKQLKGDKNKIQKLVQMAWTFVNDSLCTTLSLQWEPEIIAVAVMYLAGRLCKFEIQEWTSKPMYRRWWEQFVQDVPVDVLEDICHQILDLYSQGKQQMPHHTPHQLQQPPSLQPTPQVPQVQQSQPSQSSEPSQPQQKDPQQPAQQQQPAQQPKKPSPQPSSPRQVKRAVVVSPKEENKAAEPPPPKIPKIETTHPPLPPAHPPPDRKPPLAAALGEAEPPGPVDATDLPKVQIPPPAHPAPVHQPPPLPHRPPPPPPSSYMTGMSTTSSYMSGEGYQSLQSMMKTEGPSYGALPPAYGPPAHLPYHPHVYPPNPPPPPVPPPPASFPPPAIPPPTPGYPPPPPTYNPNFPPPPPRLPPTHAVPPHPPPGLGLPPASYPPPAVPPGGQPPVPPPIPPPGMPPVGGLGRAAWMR

This experiment addresses T1, CDK12 complexed with Cyclin K (Homo sapiens, UniProt Q9NYV4).
T1 construct: GST (N); host or cells: baculovirus expression system
As to the kind of experiment: CDK enzymatic assay (HTRF, LANCE Ultra kinase assay). Type of experiment: biochemical. To be noted: 60 minutes pre-incubation with compound; 1 mM ATP. How it is done:
The following activity of the CDK enzymes in complex with their respective cyclins we assayed: CDK1 complexed with Cyclin B1; CDK2 complexed with Cyclin E1; CDK4 complexed with Cyclin D1; CDK6 complexed with Cyclin D1; CDK6 complexed with Cyclin D3; CDK9 complexed with Cyclin T1; CDK7 complexed with Cyclin H/MAT1; CDK2 complexed with Cyclin A2; CDK5 complexed with p35; CDK12 complexed with Cyclin K; CDK13 complexed with Cyclin K. These in vitro enzyme activity are assayed using homogeneous time-resolved energy transfer (HTRF), which measures phosphorylation of a peptide substrate. The LANCE® Ultra kinase assay (PerkinElmer) uses a ULight™-labeled EIF4E-binding protein 1 (THR37/46) peptide (DYSTTPGGTLFSTTPGTRI (SEQ ID NO: 1)) substrate and a Europium-labeled anti-phospho-4E-BP1 antibody (CDK2, CDK1, CDK4, CDK6, CDK9, CDK12, CDK13) or ULight™-labeled Myelin Basic Protein peptide (VTPRTPPP (SEQ ID NO: 2)) substrate and a Europium-labeled anti-phospho-MBP antibody (CDK7). Each CDK enzyme activity assays utilized human CDK co-expressed as N-terminal GST-tagged protein with its full length cyclin partner using a baculovirus expression system.
Enzyme was pre-incubated with compounds for 30 minutes (CDK1,2,4,6,9) or 60 minutes (CDK7, CDK12, CDK13) prior to addition of ATP and Ulight-peptide (1 mM and 50 nM final, respectively), in assay buffer containing 50 mM HEPES pH 7.5, 1 mM EGTA, 10 mM MgCl2, 2 mM DTT, 0.05 mg/mL BSA, and 0.01% Tween 20. The reaction was then incubated for 60-90 minutes at room temperature. The reactions were stopped by the addition of EDTA and Europium labeled antibody, for a final concentration of 15 mM and 1.0-1.5 nM, respectively. HTRF signals were read after 15-120 minutes. A ratio of fluorescence transferred to the labeled substrate (665 nm) relative to fluorescence of the Europium donor (620 nm) represents the extent of phosphorylation. Ratios for treated wells were normalized to DMSO only (100% activity) and no enzyme (0% activity) controls. Normalized data was analyzed using a three or four parameter dose response curve to determine IC50 for each compound and are shown in Table A. Control reference inhibitors were included on each plate.
For the compound `C=CC(=O)Nc1ccc(C(=O)N2CC(Nc3nc4cnc(-c5cn[nH]c5)c(OC(C)C)n4n3)C2)cc1` [Example 1, N-(4-(3-((5-Isopropoxy-6-(1H-pyrazol-4-yl)-[1,2,4]triazolo[1,5-a]pyrazin-2-yl)amino)azetidine-1-carbonyl)phenyl)acrylamide], the IC50 was below 0.05 µM. To `C=CC(=O)Nc1ccc(C(=O)N2CCC(Nc3nc4c(OC)c(-c5cn[nH]c5)ncn4n3)CC2)cc1` [Example 2, N-(4-(4-((8-Methoxy-7-(1H-pyrazol-4-yl)-[1,2,4]triazolo[1,5-c]pyrimidin-2-yl)amino)piperidine-1-carbonyl)phenyl)acrylamide] belongs below 0.05 µM; to `C=CC(=O)Nc1ccc(C(=O)N2CC(Nc3nc4c(OC)c(-c5cn[nH]c5)ncn4n3)C2)cc1` [Example 3, N-(4-(3-((8-Methoxy-7-(1H-pyrazol-4-yl)-[1,2,4]triazolo[1,5-c]pyrimidin-2-yl)amino)azetidine-1-carbonyl)phenyl)acrylamide], below 0.05 µM. As to `C=CC(=O)Nc1ccc(C(=O)N2CCC[C@@H](Nc3nc4cnc(-c5cn[nH]c5)c(OC(C)C)n4n3)C2)c(F)c1` [Example 4, (R)-N-(3-Fluoro-4-(3-((5-isopropoxy-6-(1H-pyrazol-4-yl)-[1,2,4]triazolo[1,5-a]pyrazin-2-yl)amino)piperidine-1-carbonyl)phenyl)acrylamide], the IC50 is below 0.05 µM. As for `C=CC(=O)Nc1ccc(C(=O)N2CCC[C@@H](Nc3nc4c(OC)c(-c5cn[nH]c5)ncn4n3)C2)cc1` [Example 5, (R)-N-(4-(3-((8-Methoxy-7-(1H-pyrazol-4-yl)-[1,2,4]triazolo[1,5-c]pyrimidin-2-yl)amino)piperidine-1-carbonyl)phenyl)acrylamide], the half-maximal inhibitory concentration (IC50) was below 0.05 µM. With `C=CC(=O)Nc1ccc(C(=O)N2CCC[C@@H](Nc3nc4ccc(-c5cn[nH]c5)c(N5CCCCC5)n4n3)C2)cc1` [Example 6, (R)-N-(4-(3-((5-(Piperidin-1-yl)-6-(1H-pyrazol-4-yl)-[1,2,4]triazolo[1,5-a]pyridin-2-yl)amino)piperidine-1-carbonyl)phenyl)acrylamide], the IC50 is below 0.05 µM. In the case of `C=CC(=O)Nc1ccc(C(=O)N2CCC[C@@H](Nc3nc4ccc(-c5cn[nH]c5)c(N5CCCC5)n4n3)C2)cc1` [Example 7, (R)-N-(4-(3-((6-(1H-Pyrazol-4-yl)-5-(pyrrolidin-1-yl)-[1,2,4]triazolo[1,5-a]pyridin-2-yl)amino)piperidine-1-carbonyl)phenyl)acrylamide], the IC50 was below 0.05 µM.

Turning to `C=CC(=O)Nc1ccc(C(=O)N2CCC[C@@H](Nc3nc4ccc(-c5cn[nH]c5)c(N5CCOCC5)n4n3)C2)cc1` [Example 8, (R)-N-(4-(3-((5-Morpholino-6-(1H-pyrazol-4-yl)-[1,2,4]triazolo[1,5-a]pyridin-2-yl)amino)piperidine-1-carbonyl)phenyl)acrylamide], the IC50 is below 0.05 µM. As to `C=CC(=O)Nc1ccc(C(=O)N2CCCC(Nc3nc4ccc(-c5c[nH]nc5C)c(N5CCOCC5)n4n3)C2)cc1` (centres unmarked) [Example 9, N-(4-(3-((6-(3-Methyl-1H-pyrazol-4-yl)-5-morpholino-[1,2,4]triazolo[1,5-a]pyridin-2-yl)amino)piperidine-1-carbonyl)phenyl)acrylamide], the IC50 was above 0.5 µM. To `C=CC(=O)Nc1ccc(C(=O)N2CCC[C@@H](Nc3nc4cnc(-c5cn[nH]c5)c(OC5CC(F)(F)C5)n4n3)C2)cc1` [Example 10, (R)-N-(4-(3-((5-(3,3-Difluorocyclobutoxy)-6-(1H-pyrazol-4-yl)-[1,2,4]triazolo[1,5-a]pyrazin-2-yl)amino)piperidine-1-carbonyl)phenyl)acrylamide] belongs below 0.05 µM; to `C=CC(=O)Nc1ccc(C(=O)N2CC[C@@H](Nc3nc4ccc(-c5cn[nH]c5)cn4n3)C2)cc1` [Example 11, (R)-N-(4-(3-((6-(1H-Pyrazol-4-yl)-[1,2,4]triazolo[1,5-a]pyridin-2-yl)amino)pyrrolidine-1-carbonyl)phenyl)acrylamide], below 0.05 µM.

Turning to `C=CC(=O)Nc1ccc(C(=O)N2CC[C@@H](Nc3nc4ccc(-c5cn[nH]c5)c(C)n4n3)C2)cc1` [Example 12, (R)-N-(4-(3-((5-Methyl-6-(1H-pyrazol-4-yl)-[1,2,4]triazolo[1,5-a]pyridin-2-yl)amino)pyrrolidine-1-carbonyl)phenyl)acrylamide], the IC50 is below 0.05 µM. Take `C=CC(=O)Nc1ccc(C(=O)N2CCC[C@@H](Nc3nc4ccc(-c5cn[nH]c5)c(N5CCC(F)(F)CC5)n4n3)C2)cc1` [Example 13, (R)-N-(4-(3-((5-(4,4-Difluoropiperidin-1-yl)-6-(1H-pyrazol-4-yl)-[1,2,4]triazolo[1,5-a]pyridin-2-yl)amino)piperidine-1-carbonyl)phenyl)acrylamide]: the IC50 was in the range of 0.05 to 0.5 µM.

For `C=CC(=O)Nc1ccc(C(=O)N2CCC[C@@H](Nc3nc4ccc(-c5cn[nH]c5)c(O[C@H]5CCOC5)n4n3)C2)cc1` [Example 14, N-(4-((R)-3-((6-(1H-Pyrazol-4-yl)-5-(((S)-tetrahydrofuran-3-yl)oxy)-[1,2,4]triazolo[1,5-a]pyridin-2-yl)amino)piperidine-1-carbonyl)phenyl)acrylamide], the IC50 is below 0.05 µM. As for `C=CC(=O)Nc1ccc(C(=O)N2CCC[C@@H](Nc3nc4ccc(-c5cn[nH]c5)c(OC5CCOCC5)n4n3)C2)cc1` [Example 15, (R)-N-(4-(3-((6-(1H-Pyrazol-4-yl)-5-((tetrahydro-2H-pyran-4-yl)oxy)-[1,2,4]triazolo[1,5-a]pyridin-2-yl)amino)piperidine-1-carbonyl)phenyl)acrylamide], the IC50 was below 0.05 µM.

Regarding `C=CC(=O)Nc1ccc(O[C@H]2CCC[C@@H](Nc3nc4ccc(-c5cn[nH]c5)c(N5CCCCC5)n4n3)C2)cc1` [Example 16, N-(4-(((1S,3R)-3-((5-(Piperidin-1-yl)-6-(1H-pyrazol-4-yl)-[1,2,4]triazolo[1,5-a]pyridin-2-yl)amino)cyclohexyl)oxy)phenyl)acrylamide], the IC50 is below 0.05 µM. For the compound `C=CC(=O)Nc1ccc(C(=O)N2CC[C@@H](Nc3nc4ccc(-c5cn[nH]c5)c(C#N)n4n3)C2)cc1` [Example 17, (R)-N-(4-(3-((5-Cyano-6-(1H-pyrazol-4-yl)-[1,2,4]triazolo[1,5-a]pyridin-2-yl)amino)pyrrolidine-1-carbonyl)phenyl)acrylamide], the IC50 was below 0.05 µM. As to `C=CC(=O)Nc1ccc(C(=O)N2CC[C@@H](Nc3nc4ccc(-c5cn[nH]c5)c(C(C)C)n4n3)C2)cc1` [Example 18, (R)-N-(4-(3-((5-Isopropyl-6-(1H-pyrazol-4-yl)-[1,2,4]triazolo[1,5-a]pyridin-2-yl)amino)pyrrolidine-1-carbonyl)phenyl)acrylamide], the IC50 is below 0.05 µM. As to `C=CC(=O)Nc1ccc(C(=O)N2CC[C@@H](Nc3nc4ccc(-c5cn[nH]c5)c(C(C)C)n4n3)C2)cc1F` [Example 19, (R)-N-(2-Fluoro-4-(3-((5-isopropyl-6-(1H-pyrazol-4-yl)-[1,2,4]triazolo[1,5-a]pyridin-2-yl)amino)pyrrolidine-1-carbonyl)phenyl)acrylamide], the half-maximal inhibitory concentration (IC50) was below 0.05 µM. With `C=CC(=O)Nc1ccc(C(=O)N2CC[C@@H](Nc3nc4ccc(-c5cnco5)cn4n3)C2)cc1` [Example 20, (R)-N-(4-(3-((6-(Oxazol-5-yl)-[1,2,4]triazolo[1,5-a]pyridin-2-yl)amino)pyrrolidine-1-carbonyl)phenyl)acrylamide] the figure was below 0.05 µM; with `C=CC(=O)Nc1ccc2c(c1)C(=O)N([C@H]1CCC[C@@H](Nc3nc4ccc(-c5cn[nH]c5)c(N5CCCCC5)n4n3)C1)C2` [Example 21, N-(3-Oxo-2-((1S,3R)-3-((5-(piperidin-1-yl)-6-(1H-pyrazol-4-yl)-[1,2,4]triazolo[1,5-a]pyridin-2-yl)amino)cyclohexyl)isoindolin-5-yl)acrylamide], below 0.05 µM. As to `C=CC(=O)Nc1ccc2c(c1)C(=O)N([C@H]1CCC[C@@H](Nc3nc4ccc(-c5cn[nH]c5)c(C)n4n3)C1)C2` [Example 22, N-(2-((1S,3R)-3-((5-Methyl-6-(1H-pyrazol-4-yl)-[1,2,4]triazolo[1,5-a]pyridin-2-yl)amino)cyclohexyl)-3-oxoisoindolin-5-yl)acrylamide], the IC50 is below 0.05 µM. Consider `C=CC(=O)Nc1ccc2c(c1)C(=O)N([C@H]1CCC[C@@H](Nc3nc4ccc(-c5cn[nH]c5)c(C(C)C)n4n3)C1)C2` [Example 23, N-(2-((1S,3R)-3-((5-Isopropyl-6-(1H-pyrazol-4-yl)-[1,2,4]triazolo[1,5-a]pyridin-2-yl)amino)cyclohexyl)-3-oxoisoindolin-5-yl)acrylamide], for which the IC50 is below 0.05 µM.
